According to PubChem BioAssay AID602156 (GNF / Scripps Winzeler lab, 2011):
Active and inactive are the calls of the source. The rule behind the calls is not given here.

System: P. yoelii liver stage in HepG2-A16-CD81EGFP, imaging
Experiment: exo-erythrocytic parasite development inhibition – imaging, Malaria Box, P. yoelii, HepG2-A16-CD81EGFP, dose response (AID 602156);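 note: infected cells exposed to compound for 48 hours before fixation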

Row | IC50 | Structure (SMILES)
1 | 51.9 nM | CN(C)c1ccc(C(C=C2C=C(c3ccccc3)C=C(c3ccccc3)O2)=C2C=CC(=[N+](C)C)C=C2)cc1
2 | 2510 nM | CSc1nnc(-c2cccc([N+](=O)[O-])c2)n1Cc1ccccc1
3 | > 10000 nM (inactive) | CCc1noc(C)c1C(=O)NCCN1Cc2ccccc2OC(c2ccsc2)C1 (centres undefined)
4 | 278 nM | Cc1ccc(C2Sc3ccccc3NC3=C2C(=O)c2ccccc23)cc1 (centres undefined)
5 | > 10000 nM (inactive) | N#Cc1c2c(c(N3CCN(Cc4ccccc4)CC3)n3c1nc1ccccc13)CCC2
6 | 6650 nM | O=C(Nc1ccc(-c2nc3ccccc3[nH]2)cc1)c1ccc(-c2ccc(Cl)cc2)o1
7 | 33.5 nM | Cc1nc([P+](c2ccccc2)(c2ccccc2)c2ccccc2)c(SCc2ccccc2)o1
8 | 39.4 nM | c1ccc(-c2ccc(-c3ccccn3)nc2)nc1
9 | 67.5 nM | c1ccc(OCCOc2ccc(Nc3ccnc4cc5ccccc5cc34)cc2)cc1
10 | > 10000 nM (inactive) | Cc1cccc(C(=O)NCc2n[nH]c(=S)n2-c2cccc(C(F)(F)F)c2)c1
11 | > 10000 nM (inactive) | CCCCCCN(C(=O)COc1ccccc1)C(CC)c1nc2ccccc2c(=O)n1-c1cccc(Cl)c1 (centres undefined)
12 | 7.13 nM | CN(Cc1ccccc1)C(=O)CSc1nc(NCc2ccccc2)c2ccccc2n1
13 | 547 nM | CN1CCN(c2ccc(Nc3c4ccccc4nc4ccccc34)cc2)CC1
14 | 154 nM | CC(Oc1ccc(Cl)cc1Cl)c1nc(-c2ccc(NC(=O)c3ccco3)cc2)no1 (centres undefined)
15 | 239 nM | O=C1c2ccccc2C2=Nc3ccccc3SC(c3ccccc3F)C12 (centres undefined)
16 | 93.7 nM | O=C1C2=C(Nc3ccccc3SC2c2ccccc2)c2ccccc21 (centres undefined)
17 | 190 nM | O=C(Cc1ccccc1)NC(c1ccc(Cl)cc1)c1ccc2cccnc2c1O (centres undefined)
18 | > 10000 nM (inactive) | COc1cccc(OC)c1C(=O)Nn1c(-c2cccc(C)c2)nc2ccccc2c1=O
19 | 690 nM | Fc1ccccc1Nc1nc(NCc2ccccc2)c2ccccc2n1
20 | > 10000 nM (inactive) | Cc1ccc(S(=O)(=O)Nc2nc3n(n2)C(c2ccccc2)C=C(c2ccccc2)N3)cc1 (centres undefined)
21 | 306 nM | CCCc1nc2ccc(NC(=O)c3ccco3)cc2c(=O)n1Cc1ccc(-c2ccccc2)cc1
22 | 1110 nM | Cc1cc(Nc2cccc(F)c2)nc(NCc2ccccc2)n1
23 | > 9600 nM (inactive) | CCc1c(C)c(C#N)c2nc3ccccc3n2c1NCc1ccccc1
24 | > 10000 nM (inactive) | Clc1ncnc2ncn(Cc3ccccc3)c12
25 | 107 nM | c1ccc(-c2nn(-c3ccccc3)[n+](-c3ccccc3)n2)cc1

Row | IC50 | Structure (SMILES)
26 | 327 nM | CCN(CC)CCCNc1nc2cc(OC)c(OC)cc2c2nc(-c3ccccc3)nn12
27 | 544 nM | COc1cccc(C(=O)NC(c2ccccc2OC)c2cc(Cl)c3cccnc3c2O)c1 (centres undefined)
28 | 348 nM | CCCC(=O)N1CCN(c2nc(Cc3ccccc3)c3c(c2C#N)CC(C)(C)OC3)CC1
29 | 497 nM | N#Cc1ccc(NC(=O)NC2CC3CCCC(C2)N3CCc2ccccc2)cc1 (centres undefined)
30 | 175 nM | CN(C)c1ccc(-c2n(C)c3ccccc3[n+]2C)cc1
31 | 2910 nM | c1ccc2cc3c(N4CCN(CCN5CCN(c6ccnc7cc8ccccc8cc67)CC5)CC4)ccnc3cc2c1
32 | 186 nM | CC(C)CC(N)C(=O)N1CCn2c(nc(-c3ccccc3)c2Nc2ccc3c(c2)OCO3)C1 (centres undefined)
33 | 17.5 nM | c1ccc(-c2cc(N3CCN(c4ccccn4)CC3)nc(-c3ccccn3)n2)nc1
34 | 221 nM | NCC(=O)N1CCn2c(nc(-c3ccccc3)c2Nc2ccc3c(c2)OCO3)C1
35 | 2450 nM | CCOC(=O)C1=C(c2ccccc2)N=c2sc(=Cc3cc(C)n(-c4ccc(F)cc4)c3C)c(=O)n2C1c1cccc(OC)c1OC (centres undefined)
36 | 20 nM | CCOC(=O)c1ccc2[nH]c(-c3ccccc3)cc(=O)c2c1
37 | > 10000 nM (inactive) | O=C1Nc2ccccc2C12Nc1ccccc1-c1nc3ccccc3n12 (centres undefined)
38 | 4.18 nM | CCCc1ccc(C(=O)NC(=O)c2ccccc2O)cc1
39 | > 9290 nM (inactive) | COc1ccc2nc(SCC(=O)Nc3cccc(NC(=O)CSc4nc5ccc(OC)cc5[nH]4)n3)[nH]c2c1
40 | > 10000 nM (inactive) | O=C(c1cc2nc(-c3ccccc3)cc(C(F)(F)F)n2n1)N1CCN(Cc2ccccc2)CC1
41 | 542 nM | COc1ccc(C(NC(=O)c2cccnc2)c2cc(Cl)c3cccnc3c2O)cc1 (centres undefined)
42 | 825 nM | O=C(Cn1ccc(=NCc2ccccc2)cc1)c1ccc(I)cc1
43 | 1300 nM | Cc1ccc(Nc2cc(C)nc(NCc3ccccc3)n2)c(C)c1
44 | 20.2 nM | Cc1ccc(-n2c(-c3ccccc3)cc(C=NNC(=O)c3cccc(O)c3)c2-c2ccccc2)cc1
45 | 1040 nM | Oc1cccc(Nc2nc(NCC3CCCO3)c3ccccc3n2)c1 (centres undefined)
46 | 4.5 nM | CC[n+]1cc(-c2ccc(C)cc2)sc1C=C1Sc2ccccc2N1C
47 | 706 nM | c1ccc2c(NCCc3cnc[nH]3)c3ccccc3nc2c1
48 | > 10000 nM (inactive) | Cc1ccc(OCC(=O)Nc2cccc(-c3nc4ncccc4o3)c2)cc1C
49 | 6.21 nM | CCN1/C(=C/c2ccc3ccccc3[n+]2CC)Sc2sc3ccccc3c21

The next lines start with the compound.

Row | Structure (SMILES) | IC50
50 | N=c1c2c(n(Cc3ccc(Cl)cc3)c3c1CCC3)CCC2 | 91.1 nM
51 | CCN(CC)CCCN(Cc1cc2ccc(C)cc2[nH]c1=O)C(=S)Nc1cccc(Cl)c1 | 448 nM
52 | CCOC(=O)CN(N=O)C1=C(N2CC2)C(=O)c2ccccc2C1=O | 480 nM
53 | Cc1ccnc(Nc2nc(-c3ccccn3)cs2)c1 | 95.6 nM
54 | CCCCc1c(C)[nH]c2ccc(Br)cc2c1=O | 64.7 nM
55 | CC(=O)Nc1nc(C)c(-c2csc(Nc3ccc(C)cc3)n2)s1 | 1890 nM
56 | COc1ccc2[nH]c(=O)c(CN(C(=S)Nc3ccccc3OC)C3CCCC3)cc2c1 | > 9740 nM (inactive)
57 | COc1cc(OC)c(NC(=O)C2c3ccccc3C(=O)N(C)C2c2ccc(OC)c(OC)c2)cc1Cl (centres undefined) | > 9130 nM (inactive)
58 | COc1ccc(C(c2ccc(N(C)C)cc2)c2ccc(N(C)C)cc2)cc1 | > 10000 nM (inactive)
59 | Cc1nc2cc(-c3ccc(I)cc3)[nH]n2c(=O)c1C | 119 nM
60 | CCOC(=O)C1=C(C)NC2=C(C(=O)C(C(=O)OCC)C(c3ccccc3OC)C2)C1c1cc(OC)c(OC)c(OC)c1 (centres undefined) | 509 nM
61 | CC(C)(C)C1CCc2[nH]c3ccccc3c(=O)c2C1 (centres undefined) | 98.3 nM
62 | CCC[n+]1cccc2ccc3cccnc3c21 | 903 nM
63 | CCCC[n+]1ccccc1C=C1Sc2ccccc2N1CC | 10.9 nM
64 | N#CC1=C(N)Oc2c3c(c4ccccc4c2C1c1ccc(F)cc1)C(c1ccc(F)cc1)C(C#N)=C(N)O3 (centres undefined) | 3930 nM
65 | CN1C(=O)N(C)C(NNC(N)=S)C1NNC(N)=S (centres undefined) | 15 nM
66 | CC1(C)N=C(N)N=C(N)N1c1ccccc1 | 100 nM
67 | Cc1cccc(C)c1N(CC(=O)NCc1ccco1)S(C)(=O)=O | > 10000 nM (inactive)
68 | CCCCCCCCn1c(C)[n+](C)c2cc(Cl)c(Cl)cc21 | 419 nM
69 | CC1(C)N=C(N)N=C(N)N1c1ccc(I)cc1 | 10 nM

Row | Structure (SMILES) | IC50
70 | CC1(C)N=C(N)N=C(N)N1c1ccc(F)cc1 | 18.9 nM
71 | Cc1ccc(N2C(N)=NC(N)=NC2(C)C)cc1 | 10 nM
72 | CC[C@H]1CN2CCc3cc(OC)c(OC)cc3[C@@H]2C[C@@H]1C[C@H]1NCCc2cc(OC)c(OC)cc21 | 7.49 nM
73 | CCc1ccccc1NC(C)=O | > 10000 nM (inactive)
74 | CC(C)c1nc(N2CCN(C(=O)Nc3ccccc3)CC2)c(C#N)c2c1COC(C)(C)C2 | 1020 nM
75 | Cc1ccc(CSCc2ccc(C(=O)NC3CC3)o2)cc1 | 47.3 nM
76 | Cc1oc2c(c1C(=O)NCC1CCCO1)C(=O)c1ccccc1C2=O (centres undefined) | 189 nM
77 | CC(Oc1ccc(Cl)cc1Cl)c1nc(-c2ccc(NC(=O)c3cccs3)cc2)no1 (centres undefined) | 114 nM
78 | O=C(NC1CC1)c1ccc(CSCc2ccccc2Cl)o1 | 140 nM
79 | COc1ccc(NC(=O)COc2ccccc2C(C)C)c(OC)c1 | > 10000 nM (inactive)
80 | CN(C)CCCN(Cc1cc2cc3c(cc2[nH]c1=O)OCO3)C(=S)Nc1cccc(Cl)c1 | 818 nM
81 | COc1ccc(-c2n(CC(=O)OC3CC(C)CCC3C(C)C)c3ccccc3[n+]2C)cc1 (centres undefined) | 156 nM
82 | Nc1cccc(C(=O)Nc2ccc(Oc3cccc(Oc4ccc(NC(=O)c5cccc(N)c5)cc4)c3)cc2)c1 | 1760 nM
83 | CC1(C)N=C(N)N=C(N)N1c1ccc(Cl)cc1 | 2.56 nM
84 | CCCCN(CCCC)[P+](N(CCCC)CCCC)(N(CCCC)CCCC)N(CCCC)CCCC | 11.5 nM
85 | CCCCCc1c(C)c(C#N)c2nc3ccccc3n2c1NCCN(CC)CC | 702 nM
86 | CCc1c(C#N)c(N)nc(SCC(=O)c2ccc(C)cc2)c1C#N | > 10000 nM (inactive)
87 | CCSc1ccc2ccccc2[n+]1CC | > 10000 nM (inactive)
88 | O=C(Nc1ccc(Oc2cccc(Oc3ccc(NC(=O)c4ccc(Br)o4)cc3)c2)cc1)c1ccc(Br)o1 | 433 nM
89 | CC[n+]1c(C=C2C=C(C)OC(C)=C2)sc2ccccc21 | 245 nM

Row | Structure (SMILES) | IC50
90 | CCCCCCOc1ccc(C(C)=NNC2=NCCN2)cc1[N+](=O)[O-] | 784 nM
91 | CC[n+]1c(C=C2C=Cc3cc(C)ccc3N2C)sc(C)c1C | 11.3 nM
92 | Cc1[nH]c2ccc(Br)cc2c(=O)c1CC(C)C | 244 nM
93 | CCOC(=O)C1=C(C)NC2=C(C(=O)C(C(=O)OCC)C(c3ccc(OC)cc3)C2)C1c1ccc(OC)c(OC)c1 (centres undefined) | 240 nM
94 | COc1ccc(-c2c(C(F)(F)F)nn(C)c2NC(=O)Nc2ccc(F)cc2F)cc1 | 3450 nM
95 | Cc1ccc2nc3nc4c(C)cccc4c(N)c3cc2c1 | 47.4 nM
96 | COc1cncc(-c2cncc(-c3ccc(C)cc3)n2)c1 | > 10000 nM (inactive)
97 | COC(=O)C1=CNC=C(C(=O)OC)C1c1cc(OC)c(OC)c(OC)c1 | > 10000 nM (inactive)
98 | CC(C)(C)c1ccc(Oc2ccc(N3C(=O)C4CC=CCC4C3=O)cc2)cc1 (centres undefined) | > 10000 nM (inactive)
99 | Cc1ccc(-c2c[n+]3c(n2-c2ccc(C)cc2)CCCCC3)cc1 | 146 nM
100 | O=C(Cc1cccs1)N1CCN(c2ccccn2)CC1 | > 10000 nM (inactive)
101 | CC(=O)N(C)C1=C(N2CCCC2)C(=O)c2ccccc2C1=O | 4950 nM
102 | Cc1oc2c(c1C(=O)NC1CCS(=O)(=O)C1)C(=O)c1ccccc1C2=O (centres undefined) | 2.29 nM
103 | CC(C)NCC(O)Cn1c2ccc(Cl)cc2c2cc(Cl)ccc21 (centres undefined) | 2970 nM
104 | CCN1CCN(c2cc(C)c3cc(NC(=O)c4cc(OC)cc(OC)c4)ccc3n2)CC1 | 3740 nM
105 | Cc1[nH]c2ccccc2c(=O)c1Br | 214 nM
106 | CCCCCc1ccc(OCCCC[n+]2cccc(C)c2)c(CCCCC)c1 | 34.6 nM
107 | O=c1c2ccccc2[nH]c2ccc(F)cc12 | 223 nM
108 | CCOC(=O)c1c(CNC)n(C)c2cc(Br)c(O)cc12 | > 10000 nM (inactive)
109 | CCCN[P+](CC(C)C)(NCCC)NCCC | 281 nM
